Measurements as given in ChEMBL document CHEMBL5331139, “First-in-Class Dual Targeting Compounds for the Management of Seizures in Glucose Transporter Type 1 Deficiency Syndrome” (J Med Chem, 2023).

Tests used:
Carbonic anhydrase 1 = Carbonic anhydrase 1 (Homo sapiens, UniProt P00915)
Description: Binding affinity to human recombinant carbonic anhydrase 1 assessed as inhibition constant incubated for 15 mins by phenol red based stopped-flow CO2 hydration assay

Carbonic anhydrase 4 = Carbonic anhydrase 4 (Homo sapiens, UniProt P22748)
Description: Binding affinity to human recombinant carbonic anhydrase 4 assessed as inhibition constant incubated for 15 mins by phenol red based stopped-flow CO2 hydration assay

[1] = target: Carbonic anhydrase 5B, mitochondrial (Homo sapiens, UniProt Q9Y2D0)
Description: Binding affinity to human recombinant carbonic anhydrase 5B assessed as inhibition constant incubated for 15 mins by phenol red based stopped-flow CO2 hydration assay

[2] = target: Carbonic anhydrase 5A, mitochondrial (Homo sapiens, UniProt P35218)
Carbonic anhydrase 5A, mitochondrial, sequence (P35218 whole entry): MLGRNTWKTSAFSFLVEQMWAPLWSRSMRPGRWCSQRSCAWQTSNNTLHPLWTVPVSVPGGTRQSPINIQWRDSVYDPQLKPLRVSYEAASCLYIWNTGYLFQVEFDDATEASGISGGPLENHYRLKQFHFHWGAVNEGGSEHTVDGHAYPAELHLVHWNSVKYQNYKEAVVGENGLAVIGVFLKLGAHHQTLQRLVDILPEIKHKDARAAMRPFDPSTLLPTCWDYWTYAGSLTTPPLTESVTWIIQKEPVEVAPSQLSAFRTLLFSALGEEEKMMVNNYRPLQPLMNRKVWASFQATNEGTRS
Description: Binding affinity to human recombinant carbonic anhydrase 5A assessed as inhibition constant incubated for 15 mins by phenol red based stopped-flow CO2 hydration assay

Carbonic anhydrase 2 = Carbonic anhydrase 2 (Homo sapiens, UniProt P00918)
Description: Binding affinity to human recombinant carbonic anhydrase 2 assessed as inhibition constant incubated for 15 mins by phenol red based stopped-flow CO2 hydration assay

Carbonic anhydrase 7 = Carbonic anhydrase 7 (Homo sapiens, UniProt P43166)
Carbonic anhydrase 7, sequence (P43166 whole entry): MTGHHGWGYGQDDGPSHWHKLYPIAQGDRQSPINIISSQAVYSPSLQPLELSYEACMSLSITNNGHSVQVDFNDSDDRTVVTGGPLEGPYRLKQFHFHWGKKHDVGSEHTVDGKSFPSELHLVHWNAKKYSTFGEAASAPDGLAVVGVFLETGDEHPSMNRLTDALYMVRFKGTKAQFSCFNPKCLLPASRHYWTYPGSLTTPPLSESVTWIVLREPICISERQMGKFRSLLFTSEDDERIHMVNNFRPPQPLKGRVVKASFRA
Description: Binding affinity to human recombinant carbonic anhydrase 7 assessed as inhibition constant incubated for 15 mins by phenol red based stopped-flow CO2 hydration assay

Carbonic anhydrase 12 = Carbonic anhydrase 12 (Homo sapiens, UniProt O43570)
Carbonic anhydrase 12, sequence (O43570 whole entry): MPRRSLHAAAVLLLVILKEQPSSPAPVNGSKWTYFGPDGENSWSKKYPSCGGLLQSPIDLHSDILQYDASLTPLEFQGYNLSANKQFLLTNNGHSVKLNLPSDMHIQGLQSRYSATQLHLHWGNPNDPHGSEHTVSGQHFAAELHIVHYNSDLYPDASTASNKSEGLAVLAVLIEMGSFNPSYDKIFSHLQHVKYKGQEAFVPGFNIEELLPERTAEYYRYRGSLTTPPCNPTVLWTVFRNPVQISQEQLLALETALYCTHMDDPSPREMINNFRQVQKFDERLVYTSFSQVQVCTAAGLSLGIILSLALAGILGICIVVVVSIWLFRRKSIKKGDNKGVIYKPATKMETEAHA
Description: Binding affinity to human recombinant carbonic anhydrase 12 assessed as inhibition constant incubated for 15 mins by phenol red based stopped-flow CO2 hydration assay

in vivo [3] = details: C57BL/6, mouse, 300 mg/kg
Description: Toxicity in MES induced C57BL/6 mouse model assessed as animal death at 300 mg/kg

in vivo [4] = details: C57BL/6, mouse, 200 mg/kg
Description: Toxicity in MES induced C57BL/6 mouse model assessed as mortality at 200 mg/kg

Carbonic anhydrase 1, sequence (P00915 whole entry): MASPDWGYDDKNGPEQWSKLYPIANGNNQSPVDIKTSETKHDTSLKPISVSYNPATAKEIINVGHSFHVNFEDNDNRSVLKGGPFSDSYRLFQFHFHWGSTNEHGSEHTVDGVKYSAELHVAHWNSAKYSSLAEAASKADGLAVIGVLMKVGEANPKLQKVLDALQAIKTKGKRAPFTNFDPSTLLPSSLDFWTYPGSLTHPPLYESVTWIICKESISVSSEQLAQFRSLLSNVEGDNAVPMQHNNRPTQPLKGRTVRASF
Carbonic anhydrase 4, sequence (P22748 whole entry): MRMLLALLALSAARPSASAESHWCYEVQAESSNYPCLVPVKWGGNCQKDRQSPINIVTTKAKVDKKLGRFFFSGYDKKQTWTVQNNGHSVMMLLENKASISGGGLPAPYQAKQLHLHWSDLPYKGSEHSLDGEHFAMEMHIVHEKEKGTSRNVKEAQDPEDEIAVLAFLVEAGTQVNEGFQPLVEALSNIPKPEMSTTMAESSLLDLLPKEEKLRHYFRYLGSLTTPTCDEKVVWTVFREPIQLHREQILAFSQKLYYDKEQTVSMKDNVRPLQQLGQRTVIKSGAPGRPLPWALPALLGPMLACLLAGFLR
Carbonic anhydrase 5B, mitochondrial, sequence (Q9Y2D0 whole entry): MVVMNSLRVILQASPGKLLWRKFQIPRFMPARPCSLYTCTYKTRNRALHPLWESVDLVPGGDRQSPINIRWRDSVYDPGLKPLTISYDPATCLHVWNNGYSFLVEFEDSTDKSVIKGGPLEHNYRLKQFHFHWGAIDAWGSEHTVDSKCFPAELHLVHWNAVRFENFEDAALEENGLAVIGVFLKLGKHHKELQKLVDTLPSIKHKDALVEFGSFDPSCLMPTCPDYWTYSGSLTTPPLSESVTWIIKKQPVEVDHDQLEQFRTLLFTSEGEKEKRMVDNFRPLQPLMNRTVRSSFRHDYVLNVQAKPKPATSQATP

## NS(=O)(=O)c1ccc(C(=O)Nc2ccc([Se][C@@H]3O[C@H](CO)[C@@H](O)[C@H](O)[C@H]3O)cc2)cc1
Carbonic anhydrase 1
  Ki: 0.0464 µM
Carbonic anhydrase 4
  Ki: 0.0089 µM
[1]
  Ki: 0.003 µM
[2]
  Ki: 0.0451 µM
Carbonic anhydrase 2
  Ki: 0.0061 µM
Carbonic anhydrase 7
  Ki: 0.0009 µM
Carbonic anhydrase 12
  Ki: 0.0072 µM

## CC(=O)OC[C@H]1O[C@@H]([Se]c2ccc(S(N)(=O)=O)cc2)[C@H](OC(C)=O)[C@@H](OC(C)=O)[C@@H]1OC(C)=O
Carbonic anhydrase 1
  Ki: 0.0803 µM
Carbonic anhydrase 4
  Ki: 4.12 µM
[1]
  Ki: 0.707 µM
[2]
  Ki: 0.596 µM
Carbonic anhydrase 2
  Ki: 0.0414 µM
In vivo [3]
  mortality: 20%
Carbonic anhydrase 7
  Ki: 0.0146 µM
Carbonic anhydrase 12
  Ki: 9.44 µM

## NS(=O)(=O)c1cc(C(=O)Nc2ccc([Se][C@@H]3O[C@H](CO)[C@H](O)[C@H](O)[C@H]3O)cc2)ccc1Cl
Carbonic anhydrase 1
  Ki: 0.637 µM
Carbonic anhydrase 4
  Ki: 0.0777 µM
[1]
  Ki: 0.0219 µM
[2]
  Ki: 0.215 µM
Carbonic anhydrase 2
  Ki: 0.0148 µM
Carbonic anhydrase 7
  Ki: 0.0297 µM
Carbonic anhydrase 12
  Ki: 0.0887 µM

## NS(=O)(=O)c1ccc(C(=O)Nc2ccc([Se][C@@H]3O[C@H](CO)[C@H](O)[C@H](O)[C@H]3O)cc2)cc1
Carbonic anhydrase 1
  Ki: 0.048 µM
Carbonic anhydrase 4
  Ki: 0.348 µM
[1]
  Ki: 0.088 µM
[2]
  Ki: 0.12 µM
Carbonic anhydrase 2
  Ki: 0.0017 µM
Carbonic anhydrase 7
  Ki: 0.0096 µM
Carbonic anhydrase 12
  Ki: 0.0905 µM

## CC(=O)OC[C@H]1O[C@@H]([Se]c2ccc(S(N)(=O)=O)cc2)[C@H](OC(C)=O)[C@@H](OC(C)=O)[C@H]1OC(C)=O
Carbonic anhydrase 1
  Ki: 0.0958 µM
Carbonic anhydrase 4
  Ki: 0.344 µM
[1]
  Ki: 0.0066 µM
[2]
  Ki: 0.0872 µM
Carbonic anhydrase 2
  Ki: 0.0041 µM
Carbonic anhydrase 7
  Ki: 0.0005 µM
Carbonic anhydrase 12
  Ki: 0.804 µM

## CC(=O)O[C@H]1[C@@H](OC(C)=O)[C@@H](CO)O[C@@H]([Se]c2ccc(S(N)(=O)=O)c(N)c2)[C@@H]1OC(C)=O
Carbonic anhydrase 1
  Ki: 6.82 µM
Carbonic anhydrase 4
  Ki: 7.28 µM
[1]
  Ki: 0.172 µM
[2]
  Ki: 0.236 µM
Carbonic anhydrase 2
  Ki: 6.66 µM
Carbonic anhydrase 7
  Ki: > 10 µM
Carbonic anhydrase 12
  Ki: > 10 µM

## Nc1cc([Se][C@@H]2O[C@H](CO)[C@@H](O)[C@H](O)[C@H]2O)ccc1S(N)(=O)=O
Carbonic anhydrase 1
  Ki: 7.68 µM
Carbonic anhydrase 4
  Ki: > 10 µM
[1]
  Ki: > 10 µM
[2]
  Ki: 2.3 µM
Carbonic anhydrase 2
  Ki: 4.01 µM
Carbonic anhydrase 7
  Ki: > 10 µM
Carbonic anhydrase 12
  Ki: 2.56 µM

## CC(=O)OC[C@H]1O[C@@H]([Se]c2ccc(NC(=S)Nc3ccc(S(N)(=O)=O)cc3)cc2)[C@H](OC(C)=O)[C@@H](OC(C)=O)[C@H]1OC(C)=O
Carbonic anhydrase 1
  Ki: 0.0481 µM
Carbonic anhydrase 4
  Ki: 0.362 µM
[1]
  Ki: 0.0047 µM
[2]
  Ki: 0.482 µM
Carbonic anhydrase 2
  Ki: 0.0066 µM
Carbonic anhydrase 7
  Ki: 0.002 µM
Carbonic anhydrase 12
  Ki: 0.0342 µM

## CC(=O)OC[C@H]1O[C@@H]([Se]c2ccc(NC(=O)c3ccc(Cl)c(S(N)(=O)=O)c3)cc2)[C@H](OC(C)=O)[C@@H](OC(C)=O)[C@@H]1OC(C)=O
Carbonic anhydrase 1
  Ki: > 10 µM
Carbonic anhydrase 4
  Ki: 1.57 µM
[1]
  Ki: 0.0409 µM
[2]
  Ki: 0.348 µM
Carbonic anhydrase 2
  Ki: 0.214 µM
Carbonic anhydrase 7
  Ki: 0.0873 µM
Carbonic anhydrase 12
  Ki: > 10 µM

## CC(=O)OC[C@H]1O[C@@H]([Se]c2ccc(S(N)(=O)=O)c(N)c2)[C@H](OC(C)=O)[C@@H](OC(C)=O)[C@H]1OC(C)=O
Carbonic anhydrase 1
  Ki: 9.6 µM
Carbonic anhydrase 4
  Ki: > 10 µM
[1]
  Ki: 0.406 µM
[2]
  Ki: 6.57 µM
Carbonic anhydrase 2
  Ki: 6.32 µM
Carbonic anhydrase 7
  Ki: > 10 µM
Carbonic anhydrase 12
  Ki: > 10 µM

## CC(=O)OC[C@H]1O[C@@H]([Se]c2ccc(NC(=O)c3ccc(S(N)(=O)=O)cc3)cc2)[C@H](OC(C)=O)[C@@H](OC(C)=O)[C@H]1OC(C)=O
Carbonic anhydrase 1
  Ki: 0.0514 µM
Carbonic anhydrase 4
  Ki: 0.0308 µM
[1]
  Ki: 0.004 µM
[2]
  Ki: 0.0574 µM
Carbonic anhydrase 2
  Ki: 0.004 µM
Carbonic anhydrase 7
  Ki: 0.0007 µM
Carbonic anhydrase 12
  Ki: 0.0056 µM

## CC(=O)O[C@H]1[C@@H](OC(C)=O)[C@@H](CO)O[C@@H]([Se]c2ccc(S(N)(=O)=O)cc2)[C@@H]1OC(C)=O
Carbonic anhydrase 1
  Ki: 0.0862 µM
Carbonic anhydrase 4
  Ki: 0.146 µM
[1]
  Ki: 0.0026 µM
[2]
  Ki: 0.0968 µM
Carbonic anhydrase 2
  Ki: 0.0172 µM
Carbonic anhydrase 7
  Ki: 0.0008 µM
Carbonic anhydrase 12
  Ki: 0.0423 µM

## NS(=O)(=O)c1ccc(NC(=S)Nc2ccc([Se][C@@H]3O[C@H](CO)C(O)[C@H](O)[C@H]3O)cc2)cc1 (single isomer, unassigned; 16a)
Carbonic anhydrase 1
  Ki: 0.0714 µM
Carbonic anhydrase 4
  Ki: 0.283 µM
[1]
  Ki: 0.0076 µM
[2]
  Ki: 0.0705 µM
Carbonic anhydrase 2
  Ki: 0.0052 µM
Carbonic anhydrase 7
  Ki: 0.0044 µM
In vivo [4]
  mortality: 30%
Carbonic anhydrase 12
  Ki: 0.0198 µM

## NS(=O)(=O)c1ccc([Se][C@@H]2O[C@H](CO)[C@H](O)[C@H](O)[C@H]2O)cc1
Carbonic anhydrase 1
  Ki: 0.647 µM
Carbonic anhydrase 4
  Ki: 0.58 µM
[1]
  Ki: 0.0087 µM
[2]
  Ki: 0.427 µM
Carbonic anhydrase 2
  Ki: 0.0537 µM
Carbonic anhydrase 7
  Ki: 0.0303 µM
Carbonic anhydrase 12
  Ki: 0.0824 µM

## CC(=O)OC[C@H]1O[C@@H]([Se]c2ccc(NC(=O)c3ccc(S(N)(=O)=O)cc3)cc2)[C@H](OC(C)=O)[C@@H](OC(C)=O)[C@@H]1OC(C)=O
Carbonic anhydrase 1
  Ki: 0.0852 µM
Carbonic anhydrase 4
  Ki: 0.378 µM
[1]
  Ki: 0.0087 µM
[2]
  Ki: 0.0906 µM
Carbonic anhydrase 2
  Ki: 0.0051 µM
Carbonic anhydrase 7
  Ki: 0.0028 µM
Carbonic anhydrase 12
  Ki: 0.0094 µM

## CC(=O)OC[C@H]1O[C@@H]([Se]c2ccc(NC(=S)Nc3ccc(S(N)(=O)=O)cc3)cc2)[C@H](OC(C)=O)[C@@H](OC(C)=O)[C@@H]1OC(C)=O
Carbonic anhydrase 1
  Ki: 0.0531 µM
Carbonic anhydrase 4
  Ki: 0.555 µM
[1]
  Ki: 0.0089 µM
[2]
  Ki: 0.255 µM
Carbonic anhydrase 2
  Ki: 0.0063 µM
Carbonic anhydrase 7
  Ki: 0.0018 µM
Carbonic anhydrase 12
  Ki: 0.0558 µM

## CC(=O)O[C@@H]1[C@@H](OC(C)=O)[C@H]([Se]c2ccc(S(N)(=O)=O)cc2)O[C@H](CO)[C@H]1OC(C)=O
Carbonic anhydrase 1
  Ki: 0.0784 µM
Carbonic anhydrase 4
  Ki: 0.0671 µM
[1]
  Ki: 0.0055 µM
[2]
  Ki: 0.736 µM
Carbonic anhydrase 2
  Ki: 0.0037 µM
Carbonic anhydrase 7
  Ki: 0.0041 µM
Carbonic anhydrase 12
  Ki: 0.0059 µM

## CC(=O)OC[C@H]1O[C@@H]([Se]c2ccc(S(N)(=O)=O)c(N)c2)[C@H](OC(C)=O)[C@@H](OC(C)=O)[C@@H]1OC(C)=O
Carbonic anhydrase 1
  Ki: > 10 µM
Carbonic anhydrase 4
  Ki: > 10 µM
[1]
  Ki: > 10 µM
[2]
  Ki: 2.54 µM
Carbonic anhydrase 2
  Ki: 6.29 µM
Carbonic anhydrase 7
  Ki: > 10 µM
Carbonic anhydrase 12
  Ki: > 10 µM

## NS(=O)(=O)c1ccc([Se][C@@H]2O[C@H](CO)[C@@H](O)[C@H](O)[C@H]2O)cc1
Carbonic anhydrase 1
  Ki: 0.541 µM
Carbonic anhydrase 4
  Ki: 0.647 µM
[1]
  Ki: 0.0873 µM
[2]
  Ki: 0.325 µM
Carbonic anhydrase 2
  Ki: 0.0138 µM
Carbonic anhydrase 7
  Ki: 0.263 µM
Carbonic anhydrase 12
  Ki: 0.589 µM

## NS(=O)(=O)c1ccc(S(=O)(=O)[C@@H]2O[C@H](CO)[C@@H](O)[C@H](O)[C@H]2O)cc1
[1]
  Ki: 0.0042 µM
Carbonic anhydrase 7
  Ki: 0.0022 µM

## NS(=O)(=O)c1ccc(NC(=S)Nc2ccc([Se][C@@H]3O[C@H](CO)C(O)[C@H](O)[C@H]3O)cc2)cc1 (single isomer, unassigned; 16b)
Carbonic anhydrase 1
  Ki: 0.0415 µM
Carbonic anhydrase 4
  Ki: 0.0777 µM
[1]
  Ki: 0.0062 µM
[2]
  Ki: 0.358 µM
Carbonic anhydrase 2
  Ki: 0.0045 µM
Carbonic anhydrase 7
  Ki: 0.0009 µM
Carbonic anhydrase 12
  Ki: 0.0091 µM
